Publication PMC7298712 (mBio, 2020)

Target: Risk1 (RT0135; rRisk1 WT) (Rickettsia typhi, UniProt Q68XM2)
Assay type: biochemical

Risk1 (RT0135; rRisk1 WT), sequence (Q68XM2 1-707): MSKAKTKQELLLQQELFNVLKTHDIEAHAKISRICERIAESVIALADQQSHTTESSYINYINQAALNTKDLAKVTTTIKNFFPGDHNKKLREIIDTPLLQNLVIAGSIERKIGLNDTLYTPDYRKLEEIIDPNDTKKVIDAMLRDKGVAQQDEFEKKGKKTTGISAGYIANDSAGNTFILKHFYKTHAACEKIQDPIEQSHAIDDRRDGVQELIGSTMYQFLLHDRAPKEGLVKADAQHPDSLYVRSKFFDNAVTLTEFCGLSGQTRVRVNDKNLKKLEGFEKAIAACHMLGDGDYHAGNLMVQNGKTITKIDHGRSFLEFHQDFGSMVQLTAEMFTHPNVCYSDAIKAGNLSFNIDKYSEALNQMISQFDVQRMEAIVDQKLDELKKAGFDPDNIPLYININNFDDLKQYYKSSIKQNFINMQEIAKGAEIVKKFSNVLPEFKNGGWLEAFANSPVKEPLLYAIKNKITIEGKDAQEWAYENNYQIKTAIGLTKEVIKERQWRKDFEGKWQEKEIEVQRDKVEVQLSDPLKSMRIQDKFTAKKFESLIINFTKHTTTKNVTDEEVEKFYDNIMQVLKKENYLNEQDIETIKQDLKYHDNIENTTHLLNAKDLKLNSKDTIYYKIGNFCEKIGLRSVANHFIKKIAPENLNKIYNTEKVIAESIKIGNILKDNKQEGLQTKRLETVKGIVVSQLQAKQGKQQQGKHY

## COC[C@H]1OC(=O)c2coc3c2[C@@]1(C)C1=C(C3=O)[C@@H]2CCC(=O)[C@@]2(C)C[C@H]1OC(C)=O [wortmannin]
  ADP-Glo in vitro kinase assay, inhibition: preincubation with wortmannin significantly inhibited, in a concentration-dependent manner
